Measurements as given in publication PMC3836994, “Killer Bee Molecules: Antimicrobial Peptides as Effector Molecules to Target Sporogonic Stages of Plasmodium” (PLoS Pathogens, 2013).

Assays:
Plasmodium spp. = conditions: An. gambiae infected with a variety of Plasmodium spp., magainin injected into the midgut haemocoel; ref [29]; cited from earlier work
Excerpt: (§1) Supplement ppat.1003790.s001.doc, table 1: Table S1. Peptide sequence, activity and source. | column: Sequence and description

[1] = system: wide spectrum of microorganisms; conditions: x as strong as magainin 2; ref [83]; cited from earlier work
Excerpt: as §1

P. falciparum = experiment: Field P. falciparum from gametocyte carriers membrane-fed to An. gambiae (Mali); assay type: in vivo, Plasmodium falciparum; conditions: 50 µM
Excerpt: Nyaganabougou, a village approximately 60 km south-west of the Malian capital, Bamako, was used as a site for the source of donors of malaria-infected blood. Due to its proximity to the river Niger, which provides perennial mosquito breeding sites, Nyaganabougou has high numbers of infected individuals and an extended transmission season. Mosquitoes used to establish the An. gambiae Mali colony used for this study were originally collected in the village of Kenieroba (a distance of 15 km from Nyaganabougou). Potential male and female gametocyte carriers between the ages of 6–10 were screened by thick smear and parasite species and density determined by local staff, led by Saibou Doumbia.
Gametocyte carriers were taken to the Malaria Research and Training Centre at the University of Bamako for blood donation. Approximately 4 ml of blood was extracted from carriers and immediately divided into 3 Hemotek membrane feeders for testing 2 separate AMPs and one control for each carrier. Peptides were added to 950 µl of gametocytaemic blood for a final concentration of 50 µM. All parasite-positive individuals were subsequently treated appropriately for parasites and associated symptoms, as determined by, and carried out by, local health workers in Nyaganabougou.
Approximately 120 adult female An. gambiae (Mali, 4–7 days old) were starved overnight, and allowed to feed on the gametocytaemic blood/AMP mix for 30 min. Engorged females were maintained on 10% glucose with 0.05% PABA for 8 days before dissection. No oviposition sites were provided so that fecundity could be measured by determining retained eggs. Mosquito wing length, numbers of retained eggs and oocysts were recorded, and triplicate peptide experiments were carried out on different mosquito cohorts, using blood from different donors. Where possible, a minimum of 50 mosquitoes were dissected for each condition.

Row | Sequence | Oocyst development abolished (Plasmodium spp.) | Activity relative to magainin 2 [1] | Oocyst prevalence (oocyst positive mosquitoes), peptide (P. falciparum; Replicate 1, blood of gametocyte carriers, progeny of field An. gambiae) | Oocyst intensity (mean number of oocysts per gut, range in parentheses), peptide (P. falciparum; Replicate 1, field parasites and mosquitoes) | Reduction of prevalence (P. falciparum; single preliminary experiment)
1 | GIGKFLHSAKKFGKAFVGEIMNS [Magainin II, AMP from Xenopus laevis skin, forms pores] | GIGKFLHSAKKFGKAFVGEIMNS. AMP from Xenopus laevis skin. Forms pores and induces cell permeabilisation. An. gambiae infected with a variety of Plasmodium spp. injected with magainin into the midgut haemocoel abolished oocyst development >80%. | – | – | – | –
2 | KGRGKQGGKVRAKAKTRSS [Parasin, Parasin I, Isolated from the skin mucus of wounded catfish] | – | KGRGKQGGKVRAKAKTRSS. Isolated from the skin mucus of wounded catfish. Strong activity (12-100x as strong as magainin 2) against a wide spectrum of microorganisms, without any haemolytic activity. | 3% (64) | <1 (0–2) | 80%
